In US8367678B2, “Treatment for spinal muscular atrophy” (Kaohsiung Medical University, priority 2008, dated 2013):
pIC50: −log10 of the molar value.

Key:
Format in all cases: cell-based, Human
[1] = tested on: SMA lymphoid cells; assay: Cell viability by trypan blue dye exclusion; conditions: 24 hours
Protocol: (§1) 2.5×10^5 lymphoid cells/0.5-ml/well in a 12-well dish were exposed to 0, 2, 5, 10, 20 or 50 μM of EIPA. Viability was determined by trypan blue dye exclusion at 24 hours. To determine the cell growth effect of EIPA, 2.5×10^5 lymphoid cells/0.5-ml/well in a 12-well dish were exposed to 0, 2, 5, 10, 20 or 50 μM of EIPA. 0.5-ml of fresh medium (without or with the same EIPA addition) was added at 72 hours and cell counts made at 120 hours. Referring to FIG. 6A, the cell viability remained at above 90% after treatment of 20 μM (or lower) EIPA for 24 hours, but was down to 60% in 50 WA EIPA medium. Additionally, Referring to FIG. 6B, from a dose response curve of 120 hours in vitro cultures, it was estimated that 8 μM of EIPA cause 50% growth inhibition of SMA lymphoid cells.

[2] = tested on: SRp20 in SMA lymphoid cell lines; assay: Levels of SR and hnRNP proteins by Western blotting and quantitative densitometry; conditions: 10 μM EIPA (FIG. 3)
Protocol: SMA lymphoid cell lines were treated with various concentrations of EIPA for 24 hours and then the level of SMN protein by Western blotting and quantitative densitometry were measured. Protein extract preparation and western blot analysis were performed essentially as described previously (Proc Natl Acad Sci USA 2001; 98:9808-9813). Briefly, proteins were resolved by SDS-PAGE and transferred to a polyvinyl difluoride membrane (Millipore). The membrane was blocked with a 5% skim milk solution and then exposed to the appropriate concentrations of primary antibodies for 1 hour at room temperature. […] After washing with TBST (0.05% Tween 20 in TBS), the membrane was incubated for 1 hour with a secondary antibody at a 1:2500 dilution and then detected by ECL chemiluminescence kit (Amersham). Intensity of the signals was measured using LabWorks software (UVP). […]
SMA lymphoid cell lines were treated with EIPA and then the change in the levels of several SR and hnRNP proteins by Western blotting and quantitative densitometry was examined. The protein levels in cytoplasmic and nuclear fractions were also measured separately in order to gain information about subcellular distribution. […]

[3] = tested on: SMN protein in SMA lymphoid cell lines; assay: SMN protein level by Western blotting and quantitative densitometry; conditions: 24 hours
Protocol: SMA lymphoid cell lines were treated with various concentrations of EIPA for 24 hours and then the level of SMN protein by Western blotting and quantitative densitometry were measured. Protein extract preparation and western blot analysis were performed essentially as described previously (Proc Natl Acad Sci USA 2001; 98:9808-9813). Briefly, proteins were resolved by SDS-PAGE and transferred to a polyvinyl difluoride membrane (Millipore). The membrane was blocked with a 5% skim milk solution and then exposed to the appropriate concentrations of primary antibodies for 1 hour at room temperature. The following primary antibodies were used: mouse monoclonal anti-SMN (BD Biosciences, 1:5,000), mouse monoclonal anti-SR 16H3 (Zymed, 1:500), mouse monoclonal anti-SRp20 (Zymed, 1:500), mouse monoclonal anti-hnRNP A 1 (Acris, 1:1000), mouse monoclonal anti-hnRNP A2/B1 (Acris, 1:1000), mouse monoclonal anti-Sam68 (Santa Cruz, 1:500), mouse monoclonal anti-SF2/ASF (Zymed, 1:2000), mouse monoclonal anti-Akt (Cell Signaling, 1:1000), mouse monoclonal anti-phosphorylated Akt (Cell Signaling, 1:1000), mouse monoclonal anti-α-tubulin (Abeam, 1:5000), and mouse monoclonal anti-β-tubulin (Santa Cruz, 1:2000). After washing with TBST (0.05% Tween 20 in TBS), the membrane was incubated for 1 hour with a secondary antibody at a 1:2500 dilution and then detected by ECL chemiluminescence kit (Amersham). Intensity of the signals was measured using LabWorks software (UVP). Referring to FIG. 2, in the cytoplasm, the SMN protein level of EIPA-treated SMA cell was 1.8-, 1.4-, and 2.6-fold higher than untreated cell lines. In the nucleus, the SMN protein level at 2, 10 and 50 μM EIPA was 2.2-, 2.0-, and 3.3-fold higher than untreated cell lines.

[4] = tested on: SMA lymphoid cells; assay: Intracellular pH by cytofluorometric SNARF-1 measurement; conditions: 4 hours, untreated control about 7.40
Protocol: Thus, the intracellular pH lowering and cytotoxic effects of EIPA on SMA lymphoid cells were determined. The procedures of cytofluorometric measurement were modified from a published method (J Cell Physiol 1998; 177:109-122). Briefly, three million SMA lymphoid cells were treated with 0, 2, or 10 μM of EIPA in 3 ml of growth medium for 4 hours in a 37° C. CO2 incubator, washed in PBS and then incubated in PBS containing 5 μM of carboxy SNARF-1 AM, acetate (Molecular Probes) for 30 minutes at 37° C., also in the absence or presence of 2 or 10 μM EIPA. The SNARF-1 loaded cells collected by 200×g 10 minutes centrifugation were divided into 7 aliquots, 5 for the calibration standard curves and 2 for sample reading. […] The aliquots for sample reading were suspended in hepes-buffered pH 7.1 and pH 7.4 K^+-BSS, without or with EIPA addition, but in the absence of nigericin. After standing in the darkness at room temperature for 20 minutes, the SNARF-1 fluorescence measurement was performed in a cytofluorometer (FACSAria BD Biosciences) by excitation at 488 nm and fluorescent emissions at 580 (FL-2) and 640 nm (FL-3). The cytofluorometric data was analyzed by using FACSDiVa and CellQuest software to gate the major viable cell populations for producing a standard curve of the 640/580 nm fluorescence ratios (y-axis) versus the high-K BSS buffer pHs (x-axis) of nigericin-treated cells. […]

[5] = tested on: SMN2 exon 7 splicing in SMA lymphoid cell lines; assay: SMN2 exon 7-containing versus exon 7-lacking transcripts by RT-PCR and quantitative densitometry
Protocol: Human SMA lymphoid cell lines were treated with several 5-(N-ethyl-N-isopropyl)-amiloride and then the relative levels of SMN2 exon 7-containing versus exon 7-lacking transcripts by RT-PCR and quantitative densitometry (Proc Natl Acad Sci USA 2001; 98:9808-9813) were measured. Human lymphoblast cell lines were established from SMA patients with homozygous SMN1 deletion in our laboratory by Epstein-Barr virus transformation as described in Proc Natl Acad Sci USA 2001; 98:9808-9813. The cells were grown in RPMI-1640 medium supplemented with 2 mM L-glutamine, 10% fetal bovine serum (FBS), 100 units/ml penicillin and 100 μg/ml streptomycin at 37° C. in a humidified atmosphere containing 5% CO2. The SMA lymphoid cell lines derived from 6 SMA patients included 2 type I, 2 type II and 2 type III. The cells were treated with various concentrations of EIPA for 24 hours to determine the dosage effect and exposed to 10 μM of EIPA and harvested at different time intervals (2-24 hours). […] Thus, EIPA promoted SMN2 exon 7 inclusion in a dose-dependent and time-related manner in SMA cells.

[6] = tested on: SMA lymphoid cells; assay: Cell growth assay (cell counts at 120 hours); conditions: 120 hours in vitro cultures, from dose response curve; read-out: concentration causing 50% growth inhibition of SMA lymphoid cells
Protocol: as §1

## CCN(c1nc(N)c(C(=O)N=C(N)N)nc1Cl)C(C)C [EIPA, 5-(N-ethyl-N-isopropyl)-amiloride]
[1]; 20 μM (or lower) EIPA
  cell viability: above 90%
[1]; 50 μM EIPA medium
  cell viability: 60%
[2]
  increase of the level of SRp20 in the nucleus: approximately 4 fold
[3]; first listed concentration (2 μM EIPA)
  SMN protein level in the cytoplasm versus untreated cell lines: 1.8 fold
[3]; second listed concentration (10 μM EIPA)
  SMN protein level in the cytoplasm versus untreated cell lines: 1.4 fold
[3]; third listed concentration (50 μM EIPA)
  SMN protein level in the cytoplasm versus untreated cell lines: 2.6 fold
[3]; 2 μM EIPA
  SMN protein level in the nucleus versus untreated cell lines: 2.2 fold
[3]; 10 μM EIPA
  SMN protein level in the nucleus versus untreated cell lines: 2.0 fold
[3]; 50 μM EIPA
  SMN protein level in the nucleus versus untreated cell lines: 3.3 fold
[4]; 2 μM EIPA
  intracellular pH (pHi): 7.15±0.10
[4]; 10 μM EIPA
  intracellular pH (pHi): 7.03±0.15
[5]; 2 μM EIPA, 24 hours, SMA lymphoid cell lines
  ratio of SMN2 exon 7-containing to exon 7-lacking transcripts: increased significantly
[5]; 10 μM EIPA, 24 hours, SMA lymphoid cell lines
  ratio of SMN2 exon 7-containing to exon 7-lacking transcripts: increased significantly
[5]; 10 μM EIPA, at 4 hours after the treatment
  ratio of SMN2 exon 7-containing to exon 7-lacking transcripts: significantly increased
[5]; 50 μM EIPA, 24 hours, SMA lymphoid cell lines
  ratio of SMN2 exon 7-containing to exon 7-lacking transcripts: increased significantly
[6]
  pIC50: ~5.10
